Here are results for 13 compounds from US7632783B2 (priority 2004, dated 2009).

Assay [1] relates to rice blast (Pyricularia oryzae). The class given is in vivo. As to conditions: potted rice (variety Karakaze), spraying liquid 300 ppm after spore inoculation, observed 7 days after inoculation, levels 0 to 3.
Assay [2] deals with gray mold (Botrytis cinerea). Kind of assay: Tomato gray mold control test (preventive effects). The class given is in vivo. Conditions: potted tomato (giant Fukuju variety), spraying liquid 300 ppm before spore inoculation, investigated 2 days after inoculation, levels 0 to 3. The method, then: Bulk drug was dissolved in a mixed solution of dimethylsulfoxide and methanol (volume ratio: 7/3), and spraying liquids containing 300 ppm of compounds of the present invention were uniformly sprayed onto potted test plants (tomato: giant Fukuju variety) in the second to third leaf stage. […], a suspension of pathogen spores were inoculated by spraying onto the pots in an inoculation room at a room temperature of 20 to 23° C. to promote the onset of disease. The degree of disease onset was investigated 2 days after inoculation. The test was carried out in duplicate.
Furthermore, the degree of disease onset was evaluated to one of four levels from 0 to 3 according to the criteria below by macroscopically observing the degree of disease onset of the test plants.
1: Degree of disease onset less than 40% of the untreated area
2: Degree of disease onset 40% to less than 80% of the untreated area
3: Degree of disease onset 80% or more

In the case of `CC1(C)N=C(c2cnc3ccccc3c2)c2cccc(F)c2C1F` (centres unmarked) [Example 174, 3-(4,5-difluoro-3,3-dimethyl-3,4-dihydroisoquinolin-1-yl)quinoline], the “degree of disease onset” value in assay [1] and in assay [2] was 0 throughout.
In the case of `CC1(C)N=C(c2cnc3ccccc3c2)c2ccccc2C1(F)F` [Example 177, 3-(4,4-difluoro-3,3-dimethyl-3,4-dihydroisoquinolin-1-yl)quinoline], the “degree of disease onset” value in assay [1] and in assay [2] was 0 throughout.
Regarding `CC1(C)N=C(c2cnc3ccccc3c2)c2cccc(F)c2C1(F)F` [Example 178, 3-(4,4,5-trifluoro-3,3-dimethyl-3,4-dihydroisoquinolin-1-yl)quinoline], the “degree of disease onset” value in assay [1] and in assay [2] was 0 each time.
For `CC1(C)c2c(F)cccc2C2(c3cnc4ccccc4c3)ON2C1(C)C` (centres unmarked) [Example 193, 5-fluoro-3,3,4,4-tetramethyl-8b-quinolin-3-yl-4,8b-dihydro-3H-oxazileno[3,2-a]isoquinoline], the “degree of disease onset” value in assay [1] and in assay [2] was 0 each time.
As for `CC1(C)c2ccccc2C2(c3cnc4ccccc4c3)ON2C1(C)C` (centres unmarked) [Example 196, 3,3,4,4-tetramethyl-8b-quinolin-3-yl-4,8b-dihydro-3H-oxazileno[3,2-a]isoquinoline], the “degree of disease onset” value in assay [1] and in assay [2] was 0 in each case.
Consider `CC1(C)Cc2c(F)cccc2C2(c3cnc4ccccc4c3)ON12` (centres unmarked) [Example 197, 5-fluoro-3,3-dimethyl-8b-quinolin-3-yl-4,8b-dihydro-3H-oxazileno[3,2-a]isoquinoline], for which the “degree of disease onset” value in assay [1] and in assay [2] was 0 throughout.
Consider `CC1(C)c2cc(F)ccc2C2(c3cnc4ccccc4c3)ON2C1(C)C` (centres unmarked) [Example 199, 6-fluoro-3,3,4,4-tetramethyl-8b-quinolin-3-yl-4,8b-dihydro-3H-oxazileno[3,2-a]isoquinoline], for which the “degree of disease onset” value in assay [1] and in assay [2] was 0 each time.
As to `CC1(C)c2ccccc2C2(c3cnc4ccccc4c3)ON2C12CCCC2` (centres unmarked) [Example 202, 4′,4′-dimethyl-8b′-quinolin-3-yl-4′,8b′-dihydrospiro[cyclopentane-1,3′-oxazileno[3,2-a]isoquinoline]], the “degree of disease onset” value in assay [1] and in assay [2] was 0 throughout.
With `CC1(C)N2OC2(c2cnc3ccccc3c2)c2cccc(F)c2C1(F)F` (centres unmarked) [Example 203, 4,4,5-trifluoro-3,3-dimethyl-8b-quinolin-3-yl-4,8b-dihydro-3H-oxazileno[3,2-a]isoquinoline], the “degree of disease onset” value in assay [1] and in assay [2] was 0 each time.
Regarding `CC1(C)c2c(F)cccc2C(c2cnc3ccccc3c2)=[N+]([O-])C1(C)C` [Example 204, 3-(5-fluoro-3,3,4,4-tetramethyl-2-oxide-3,4-dihydroisoquinolin-1-yl)quinoline], the “degree of disease onset” value in assay [1] and in assay [2] was 0 throughout.
For the compound `CC1(C)c2ccccc2C(c2cnc3ccccc3c2)=[N+]([O-])C1(C)C` [Example 207, 3-(3,3,4,4-tetramethyl-2-oxide-3,4-dihydroisoquinolin-1-yl)quinoline], the “degree of disease onset” value in assay [1] and in assay [2] was 0 throughout.
Regarding `CC1(C)c2cc(F)ccc2C(c2cnc3ccccc3c2)=[N+]([O-])C1(C)C` [Example 209, 3-(6-fluoro-3,3,4,4-tetramethyl-2-oxide-3,4-dihydroisoquinolin-1-yl)quinoline], the “degree of disease onset” value in assay [1] and in assay [2] was 0 in each case.
With `CC1(C)c2cc(Cl)ccc2C(c2cnc3ccccc3c2)=[N+]([O-])C1(C)C` [Example 211, 3-(6-chloro-3,3,4,4-tetramethyl-2-oxide-3,4-dihydroisoquinolin-1-yl)quinoline], the “degree of disease onset” value in assay [1] and in assay [2] was 0 each time.
